Measurements from PubChem BioAssay (NCI).
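Method: 48-hour compound exposure of cells in 96-well plates, five concentrations, linear interpolation of endpoints. At the TGI there is no net growth.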

Tests used:
Assay in all cases: inhibition of tumour cell growth, NCI panel, 48 h
786-0 renal = tested on: 786-0 renal
A498 renal = tested on: A498 renal
A549 NSCLC = tested on: A549 NSCLC
ACHN renal = tested on: ACHN renal
BT-549 breast = tested on: BT-549 breast
CAKI-1 renal = tested on: CAKI-1 renal
CCRF-CEM leukemia = tested on: CCRF-CEM leukemia
COLO 205 colon = tested on: COLO 205 colon
DU-145 prostate = tested on: DU-145 prostate
EKVX NSCLC = tested on: EKVX NSCLC
HCC-2998 colon = tested on: HCC-2998 colon
HCT-15 colon = tested on: HCT-15 colon
HL-60(TB) leukemia = tested on: HL-60(TB) leukemia
HOP-92 NSCLC = tested on: HOP-92 NSCLC
HS 578T breast = tested on: HS 578T breast
IGROV1 ovarian = tested on: IGROV1 ovarian
K-562 leukemia = tested on: K-562 leukemia
KM12 colon = tested on: KM12 colon
LOX IMVI melanoma = tested on: LOX IMVI melanoma
M14 melanoma = tested on: M14 melanoma
MALME-3M melanoma = tested on: MALME-3M melanoma
MCF7 breast = tested on: MCF7 breast
MDA-MB-231 breast = tested on: MDA-MB-231 breast
MDA-MB-435 = tested on: MDA-MB-435
MDA-N = tested on: MDA-N
MOLT-4 leukemia = tested on: MOLT-4 leukemia
NCI-H226 lung = tested on: NCI-H226 lung
NCI-H460 lung = tested on: NCI-H460 lung
NCI-H522 lung = tested on: NCI-H522 lung
NCI/ADR-RES ovarian = tested on: NCI/ADR-RES ovarian
OVCAR-3 ovarian = tested on: OVCAR-3 ovarian
OVCAR-4 ovarian = tested on: OVCAR-4 ovarian
OVCAR-5 ovarian = tested on: OVCAR-5 ovarian
OVCAR-8 ovarian = tested on: OVCAR-8 ovarian
PC-3 prostate = tested on: PC-3 prostate
RPMI-8226 leukemia = tested on: RPMI-8226 leukemia
RXF 393 renal = tested on: RXF 393 renal
SF-268 CNS = tested on: SF-268 CNS
SF-295 CNS = tested on: SF-295 CNS
SF-539 CNS = tested on: SF-539 CNS
SK-MEL-2 melanoma = tested on: SK-MEL-2 melanoma
SK-MEL-28 melanoma = tested on: SK-MEL-28 melanoma
SK-MEL-5 melanoma = tested on: SK-MEL-5 melanoma
SN12C renal = tested on: SN12C renal
SNB-19 CNS = tested on: SNB-19 CNS
SNB-75 CNS = tested on: SNB-75 CNS
SR leukemia = tested on: SR leukemia
SW-620 colon = tested on: SW-620 colon
T-47D breast = tested on: T-47D breast
TK-10 renal = tested on: TK-10 renal
U251 CNS = tested on: U251 CNS
UACC-257 melanoma = tested on: UACC-257 melanoma
UACC-62 melanoma = tested on: UACC-62 melanoma
HCT-116 colon = tested on: HCT-116 colon
HOP-62 NSCLC = tested on: HOP-62 NSCLC
HT29 colon = tested on: HT29 colon
NCI-H23 lung = tested on: NCI-H23 lung
SK-OV-3 ovarian = tested on: SK-OV-3 ovarian
UO-31 renal = tested on: UO-31 renal

## CC1=C(C(=O)N[C@@H](CC(C)C)C(=O)O)N2C(=O)[C@@H](NC(=O)[C@@H](N)Cc3ccccc3)[C@H]2SC1
786-0 renal
  TGI: > 100 µM
A498 renal
  TGI: > 100 µM
A549 NSCLC
  TGI: > 100 µM
ACHN renal
  TGI: > 100 µM
BT-549 breast
  TGI: > 100 µM
CAKI-1 renal
  TGI: > 100 µM
CCRF-CEM leukemia
  TGI: > 100 µM
COLO 205 colon
  TGI: > 100 µM
DU-145 prostate
  TGI: > 100 µM
EKVX NSCLC
  TGI: > 100 µM
HCC-2998 colon
  TGI: > 100 µM
HCT-15 colon
  TGI: > 100 µM
HL-60(TB) leukemia
  TGI: > 100 µM
HOP-92 NSCLC
  TGI: > 100 µM
HS 578T breast
  TGI: > 100 µM
IGROV1 ovarian
  TGI: > 100 µM
K-562 leukemia
  TGI: > 100 µM
KM12 colon
  TGI: > 100 µM
LOX IMVI melanoma
  TGI: > 100 µM
M14 melanoma
  TGI: > 100 µM
MALME-3M melanoma
  TGI: > 100 µM
MCF7 breast
  TGI: > 100 µM
MDA-MB-231 breast
  TGI: > 100 µM
MDA-MB-435
  TGI: > 100 µM
MDA-N
  TGI: > 100 µM
MOLT-4 leukemia
  TGI: > 100 µM
NCI-H226 lung
  TGI: > 100 µM
NCI-H460 lung
  TGI: > 100 µM
NCI-H522 lung
  TGI: > 100 µM
NCI/ADR-RES ovarian
  TGI: > 100 µM
OVCAR-3 ovarian
  TGI: > 100 µM
OVCAR-4 ovarian
  TGI: > 100 µM
OVCAR-5 ovarian
  TGI: > 100 µM
OVCAR-8 ovarian
  TGI: > 100 µM
PC-3 prostate
  TGI: > 100 µM
RPMI-8226 leukemia
  TGI: > 100 µM
RXF 393 renal
  TGI: > 100 µM
SF-268 CNS
  TGI: > 100 µM
SF-295 CNS
  TGI: > 100 µM
SF-539 CNS
  TGI: > 100 µM
SK-MEL-2 melanoma
  TGI: > 100 µM
SK-MEL-28 melanoma
  TGI: > 100 µM
SK-MEL-5 melanoma
  TGI: > 100 µM
SN12C renal
  TGI: > 100 µM
SNB-19 CNS
  TGI: > 100 µM
SNB-75 CNS
  TGI: > 100 µM
SR leukemia
  TGI: > 100 µM
SW-620 colon
  TGI: > 100 µM
T-47D breast
  TGI: > 100 µM
TK-10 renal
  TGI: > 100 µM
U251 CNS
  TGI: > 100 µM
UACC-257 melanoma
  TGI: > 100 µM
UACC-62 melanoma
  TGI: > 100 µM

## COc1cc([C@@H]2C3C(=O)c4ccccc4C3[C@@H](c3cc(OC)c(OC)c(OC)c3)C23Cc2ccccc2C3=O)cc(OC)c1OC (stereo not given in full)
786-0 renal
  TGI: > 100 µM
A498 renal
  TGI: > 100 µM
A549 NSCLC
  TGI: > 100 µM
ACHN renal
  TGI: > 100 µM
BT-549 breast
  TGI: > 100 µM
CAKI-1 renal
  TGI: 7.85 µM
CCRF-CEM leukemia
  TGI: > 100 µM
COLO 205 colon
  TGI: > 100 µM
DU-145 prostate
  TGI: > 100 µM
EKVX NSCLC
  TGI: > 100 µM
HCC-2998 colon
  TGI: > 100 µM
HCT-116 colon
  TGI: > 100 µM
HCT-15 colon
  TGI: > 100 µM
HL-60(TB) leukemia
  TGI: > 100 µM
HOP-62 NSCLC
  TGI: > 100 µM
HOP-92 NSCLC
  TGI: > 100 µM
HS 578T breast
  TGI: > 100 µM
HT29 colon
  TGI: > 100 µM
IGROV1 ovarian
  TGI: > 100 µM
K-562 leukemia
  TGI: > 100 µM
KM12 colon
  TGI: > 100 µM
LOX IMVI melanoma
  TGI: > 100 µM
M14 melanoma
  TGI: > 100 µM
MALME-3M melanoma
  TGI: > 100 µM
MCF7 breast
  TGI: > 100 µM
MDA-MB-231 breast
  TGI: > 100 µM
MDA-MB-435
  TGI: > 100 µM
MDA-N
  TGI: > 100 µM
MOLT-4 leukemia
  TGI: > 100 µM
NCI-H226 lung
  TGI: > 100 µM
NCI-H23 lung
  TGI: > 100 µM
NCI-H460 lung
  TGI: > 100 µM
NCI-H522 lung
  TGI: > 100 µM
NCI/ADR-RES ovarian
  TGI: > 100 µM
OVCAR-3 ovarian
  TGI: > 100 µM
OVCAR-4 ovarian
  TGI: > 100 µM
OVCAR-5 ovarian
  TGI: > 100 µM
OVCAR-8 ovarian
  TGI: > 100 µM
PC-3 prostate
  TGI: > 100 µM
RPMI-8226 leukemia
  TGI: > 100 µM
RXF 393 renal
  TGI: > 100 µM
SF-268 CNS
  TGI: > 100 µM
SF-295 CNS
  TGI: > 100 µM
SF-539 CNS
  TGI: > 100 µM
SK-MEL-28 melanoma
  TGI: > 100 µM
SK-MEL-5 melanoma
  TGI: > 100 µM
SK-OV-3 ovarian
  TGI: > 100 µM
SN12C renal
  TGI: > 100 µM
SNB-19 CNS
  TGI: > 100 µM
SNB-75 CNS
  TGI: > 100 µM
SR leukemia
  TGI: > 100 µM
SW-620 colon
  TGI: > 100 µM
T-47D breast
  TGI: > 100 µM
TK-10 renal
  TGI: > 100 µM
U251 CNS
  TGI: > 100 µM
UACC-257 melanoma
  TGI: > 100 µM
UO-31 renal
  TGI: > 100 µM
